Source: paper PMC6317804, “The integration of pharmacophore-based 3D QSAR modeling and virtual screening in safety profiling: A case study to identify antagonistic activities against adenosine receptor, A2A, using 1,897 known drugs” (PLoS ONE, 2019)
Several values for one entry are separate records, joined by “and”; a condition that tells them apart may be missing. Equal values may be shown once.

Columns and labels:
[1] = molecular target: T1, adenosine receptor 2A (A2A) (Homo sapiens, UniProt P29274); assay: Functional assay monitoring Ca2+ flux (DiscoveRx); assay type: cell-based; parameters: inhibition: dose or concentration left out as unconfirmed; details: for inhibition: read-out: IC50, Ca2+, M
T1 construct: CEREP (Poitiers, France), paid service
T1 sequence (P29274 whole entry): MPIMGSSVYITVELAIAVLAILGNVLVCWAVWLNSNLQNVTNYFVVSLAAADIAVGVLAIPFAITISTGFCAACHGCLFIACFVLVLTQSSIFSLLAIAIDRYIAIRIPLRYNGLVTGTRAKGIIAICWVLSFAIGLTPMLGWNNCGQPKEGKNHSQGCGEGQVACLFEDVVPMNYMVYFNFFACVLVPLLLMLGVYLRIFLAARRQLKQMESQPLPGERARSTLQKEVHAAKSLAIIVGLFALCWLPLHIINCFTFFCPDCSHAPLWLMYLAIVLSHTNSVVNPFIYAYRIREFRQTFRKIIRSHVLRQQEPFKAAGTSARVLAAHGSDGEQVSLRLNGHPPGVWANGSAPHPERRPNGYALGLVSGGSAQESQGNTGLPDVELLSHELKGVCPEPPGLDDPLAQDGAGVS
Procedure: (§1) Competition binding assay using radioactive ligands and functional assay monitoring cAMP were carried out as a paid service provided by CEREP (Poitiers, France). The functional assays monitoring Ca^2+ flux were carried out as a paid service provided by DiscoveRx (Carlsbad, CA).

[2] = molecular target: T1, adenosine receptor 2A (A2A); assay: Competition binding assay using radioactive ligands (CEREP); parameters: inhibition: dose or concentration left out as unconfirmed; details: for inhibition at 10 µM: fixed compound concentration of 10 μM; for inhibition: read-out: %inhibition, binding;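 for all read-outs here: compounds screened at a single fixed 10 µM concentration for displacement of a radioligand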
Procedure: as §1

[3] = molecular target: T1, adenosine receptor 2A (A2A); assay: Functional antagonist assay monitoring cAMP (CEREP); assay type: cell-based;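 for IC50, cAMP, M: eight-point concentration-response from 0 to 10 µM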
Procedure: as §1

A2A = details: cited from earlier work
[4] = concentration-response up to 10 μM, read-out: IC50, Ca2+
[5] = concentration-response up to 10 μM, read-out: IC50, cAMP
[6] = concentration-response up to 10 μM

SMILES	inhibition at 10 µM [2] [%]	inhibition at up to 10 µM [3, 5] [%]	inhibition [1] [%]	further results
Cc1ccc2c(c1)c1c3n2CCNC3CCC1 (stereo not drawn) [Pirlindole]	< 50	< 50		inhibition at up to 10 µM [1, 4]: < 50%
N=C(N)NC(=O)c1nc(Cl)c(N)nc1N [Amiloride]			< 50	inhibition [2]: 53%; inhibition ([3]; read-out: IC50, cAMP, M): < 50%
COCCc1ccc(OCC(O)CNC(C)C)cc1 (stereo not drawn) [Metoprolol]	< 50	< 50	< 50	
NCC1(CC(=O)O)CCCCC1 [Gabapentin]			< 50	inhibition [2]: < 50%; inhibition ([3]; read-out: IC50, cAMP, M): < 50%
OC(CNCC(O)C1CCc2cc(F)ccc2O1)C1CCc2cc(F)ccc2O1 (stereo not drawn) [Nebivolol]	< 50	< 50	< 50	
CC(C)C[C@H](NC(=O)[C@H](Cc1ccccc1)NC(=O)c1cnccn1)B(O)O [Bortezomib]	< 50	< 50	< 50	
NC(=O)c1ncn([C@@H]2O[C@H](CO)[C@@H](O)[C@H]2O)n1 [Ribavirin]	< 50	< 50	< 50	
CC(C)[C@H](N)C(=O)OCC(CO)OCn1cnc2c(=O)nc(N)[nH]c21 (stereo partly drawn) [Valganciclovir]	< 50	< 50	< 50	
C[C@@H](O)[C@H]1C(=O)N2C(C(=O)O)=C(S[C@@H]3CN[C@H](C(=O)Nc4cccc(C(=O)O)c4)C3)[C@H](C)[C@H]12 [Ertapenem]	< 50	< 50	< 50	
CC(C)OC(=O)[C@H](C)N[P@](=O)(OC[C@H]1O[C@@H](n2ccc(=O)[nH]c2=O)[C@](C)(F)[C@@H]1O)Oc1ccccc1 [Sofosbuvir]	< 50		< 50	inhibition ([3]; read-out: IC50, cAMP, M): < 50%
O=C(Oc1ccccc1C(=O)O)c1ccccc1O [Salsalate]	< 50	< 50	< 50	
Cc1cc2c(OCC(CNC(C)(C)C)OC(=O)c3ccccc3)cccc2[nH]1 (stereo not drawn) [Bopindolol]	< 50	< 50	< 50	
Cc1[nH]c(=O)c(C#N)cc1-c1ccncc1 [Milrinone]	< 50	< 50	< 50	
C=CC1=C(C(=O)O)N2C(=O)[C@@H](NC(=O)/C(=N\OCC(=O)O)c3csc(N)n3)[C@H]2SC1 [Cefixime]	< 50	< 50	< 50	
NC(=O)OCC(COC(N)=O)c1ccccc1 [Felbamate]	< 50	< 50	< 50	
CCCNCC(O)COc1ccccc1C(=O)CCc1ccccc1 (stereo not drawn) [Propafenone]	< 50	< 50	< 50	
COc1ccc(OC)c(C(O)CNC(=O)CN)c1 (stereo not drawn) [Midodrine]	< 50	< 50	< 50	
C=CC1=C(C(=O)O)N2C(=O)[C@@H](NC(=O)/C(=N\O)c3csc(N)n3)[C@H]2SC1 [Cefdinir]	< 50	< 50	< 50	
C=CCN1C[C@H](C(=O)N(CCCN(C)C)C(=O)NCC)C[C@@H]2c3cccc4[nH]cc(c34)C[C@H]21 [Cabergoline]	< 50	< 50	< 50	
CCC1=C(C)CN(C(=O)NCCc2ccc(S(=O)(=O)NC(=O)N[C@H]3CC[C@H](C)CC3)cc2)C1=O [Glimepiride]	< 50	< 50		inhibition at up to 10 µM [1, 4]: < 50%
Nc1ccc(O)c(C(=O)O)c1 [Mesalazine]	< 50	< 50		inhibition at up to 10 µM [1, 4]: < 50%
Nc1nc(N)c2nc(-c3ccccc3)c(N)nc2n1 [Triamterene]	< 50	< 50	< 50	
COc1cccc2c1C(=O)c1c(O)c3c(c(O)c1C2=O)C[C@@](O)(C(=O)CO)C[C@@H]3O[C@H]1C[C@H](N)[C@H](O)[C@H](C)O1 [Doxorubicin]	< 50	< 50		IC50 [1, 6]: 2500 nM
CC(C)[N+]1(C)[C@@H]2CC[C@H]1C[C@@H](OC(=O)C(CO)c1ccccc1)C2 (stereo partly drawn) [Ipratropium bromide]	< 50			IC50, Ca2+, M [1, 6]: N.E. (N.E., no effects. Results showing an inhibition or stimulation lower than 50% are considered to represent insignificant effects of the test compounds.); IC50, cAMP, M [3, 6]: N.E. (N.E., no effects. Results showing an inhibition or stimulation lower than 50% are considered to represent insignificant effects of the test compounds.)
COc1ccc([C@@H]2Sc3ccccc3N(CCN(C)C)C(=O)[C@@H]2OC(C)=O)cc1 [Diltiazem]	< 50	< 50	< 50	
COc1ccccc1Oc1c(NS(=O)(=O)c2ccc(C(C)(C)C)cc2)nc(-c2ncccn2)nc1OCCO [Bosentan]	< 50			inhibition at 10 µM [1, 4]: < 50%; inhibition at 10 µM [3, 5]: < 50%

SMILES	inhibition at 10 µM [2] [%]	inhibition at up to 10 µM [3, 5] [%]	inhibition [1] [%]	further results
CO[C@@]1(NC(=O)Cc2cccs2)C(=O)N2C(C(=O)O)=C(COC(N)=O)CS[C@@H]21 [Cefoxitin]	< 50	< 50	< 50	
CCCSc1nc(N[C@@H]2C[C@H]2c2ccc(F)c(F)c2)c2nnn([C@@H]3C[C@H](OCCO)[C@@H](O)[C@H]3O)c2n1 [Ticagrelor]	< 50	< 50		inhibition at up to 10 µM [1, 4]: < 50%
CC1=C(C(=O)O)N2C(=O)[C@@H](NC(=O)[C@H](N)c3ccccc3)[C@H]2SC1 [Cephalexin]	< 50	< 50	< 50	
Cc1ncc(CO)c(C=O)c1O [Pyridoxal]	< 50	< 50	< 50	
O=C(Nc1cccc2c(=O)cc(-c3nnn[nH]3)oc12)c1ccc(OCCCCc2ccccc2)cc1 [Pranlukast]	< 50	< 50		IC50 [1, 6]: 830 nM
CN(CCOc1ccc(CC2SC(=O)NC2=O)cc1)c1ccccn1 (stereo not drawn) [Rosiglitazone]	< 50	< 50	< 50	
O=C(/C=C/c1c(-c2ccccc2)nn2ccccc12)N1CCCC[C@@H]1CCO [FK453]				IC50 (A2A): 1580 nM
C#C[C@]1(O)CC[C@H]2[C@@H]3CCC4=CCCC[C@@H]4[C@H]3C(=C)C[C@@]21CC [Desogestrel]	< 50	< 50	< 50	
Cc1c(O)cccc1C(=O)N[C@@H](CSc1ccccc1)[C@H](O)CN1C[C@H]2CCCC[C@H]2C[C@H]1C(=O)NC(C)(C)C [Nelfinavir]	< 50	< 50		inhibition at up to 10 µM [1, 4]: < 50%
CN(C)CCC(c1ccccc1)c1ccccn1 (stereo not drawn) [Pheniramine]	< 50	< 50		inhibition at up to 10 µM [1, 4]: < 50%
CCN1CCCC1CNC(=O)c1cc(S(N)(=O)=O)ccc1OC (stereo not drawn) [Sulpiride]	< 50	< 50	< 50	
CCCCCOC(=O)Nc1nc(=O)n([C@@H]2O[C@H](C)[C@@H](O)[C@H]2O)cc1F [Capecitabine]	< 50	< 50	< 50	
c1ccc(-c2cc(-c3ccccc3)c3nc(C4CCCCC4)[nH]c3n2)cc1 [LUF5981]				IC50 (A2A): 200 nM
C[S+](CC[C@H](N)C(=O)[O-])C[C@H]1O[C@@H](n2cnc3c(N)ncnc32)[C@H](O)[C@@H]1O (stereo partly drawn) [S-Adenosyl-methionine]	74	< 50		inhibition at up to 10 µM [1, 4]: < 50%
Nc1nnc(-c2cccc(Cl)c2Cl)c(N)n1 [Lamotrigine]	< 50	< 50	< 50	
COC(=O)C1=C(C)NC(C)=C(C(=O)OC(C)C)C1c1cccc2nonc12 (stereo not drawn) [Isradipine]	< 50	< 50	< 50	
NC[C@H](O)c1ccc(O)c(O)c1 [Norepinephrine]	< 50	< 50	< 50	
CC1=C(C(=O)O)N2C(=O)[C@@H](NC(=O)[C@H](N)c3ccc(O)cc3)[C@H]2SC1 [Cefadroxil]	< 50	< 50		inhibition at up to 10 µM [1, 4]: < 50%
CC(C)[C@H](N)C(=O)OCCOCn1cnc2c(=O)[nH]c(N)nc21 [Valaciclovir]	< 50	< 50	< 50	
Cc1cc(C#N)cc(C)c1Oc1nc(Nc2ccc(C#N)cc2)nc(N)c1Br [Etravirine]	< 50	< 50		inhibition at up to 10 µM [1, 4]: < 50%
CCOC(=O)C1=C(C)NC(c2ccccc2)=C(C(=O)OCc2ccccc2)C1C#Cc1ccccc1 (stereo not drawn) [MRS1191]				IC50 (A2A): ~10000 nM and 10000 nM
COc1ccc2c(c1)C(=O)N(CCc1ccc(S(=O)(=O)NC(=O)NC3CCCCC3)cc1)C(=O)C2(C)C [Gliquidone]	< 50	< 50	< 50	
NC(N)=Nc1nc(CSCCC(N)=NS(N)(=O)=O)cs1 [Famotidine]	< 50		< 50	inhibition [3, 5]: < 50%
Cc1onc(-c2c(F)cccc2Cl)c1C(=O)N[C@@H]1C(=O)N2[C@@H]1SC(C)(C)[C@@H]2C(=O)O [Flucloxacillin]	< 50	< 50	< 50	
O=C1CCCC(=O)C1C(=O)c1ccc(C(F)(F)F)cc1[N+](=O)[O-] [Nitisinone]	< 50	< 50		inhibition at up to 10 µM [1, 4]: < 50%
